Values quoted from earlier work, collected in patent US7300923B2, “Partial and full agonists of A1 adenosine receptors” (CV Therapeutics, Inc., priority 2004, dated 2007).
One block for each compound: values may come before it.

Legend:
[1] = test system: seizures induced by DMCM; conditions: seizures induced by the inverse benzodiazepine agonist DMCM
[2] = target: T1, A1-adenosine receptor (Homo sapiens, UniProt P30542)
T1 sequence (P30542 1-326): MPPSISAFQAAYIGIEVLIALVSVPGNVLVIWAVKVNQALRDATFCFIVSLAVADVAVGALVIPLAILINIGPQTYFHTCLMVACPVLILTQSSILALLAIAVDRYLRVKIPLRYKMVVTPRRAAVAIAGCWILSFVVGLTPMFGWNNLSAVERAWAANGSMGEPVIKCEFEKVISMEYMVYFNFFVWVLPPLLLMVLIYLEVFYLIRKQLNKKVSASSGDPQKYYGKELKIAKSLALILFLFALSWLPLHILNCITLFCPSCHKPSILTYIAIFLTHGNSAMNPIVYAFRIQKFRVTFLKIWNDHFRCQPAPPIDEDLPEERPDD

SMILES: Cc1ccccc1CNc1ncnc2c1ncn2[C@@H]1O[C@H](CO)[C@@H](O)[C@H]1O [metrifudil]
anticonvulsant activity [1]: potent anticonvulsant

half-life: less than 10 sec
SMILES: Nc1ncnc2c1ncn2[C@@H]1O[C@H](CO)[C@@H](O)[C@H]1O [adenosine, Adenosine]

SMILES: OC1CCCC1Nc1ncnc2c1ncn2[C@@H]1O[C@H](CSc2ccccc2F)[C@@H](O)[C@H]1O (mixture of isomers) [(4S,5S,2R,3R)-5-[(2-fluorophenylthio)methyl]-2-{6-[(2-hydroxy-cyclopentyl)amino]-purin-9-yl}oxolane-3,4-diol]
A1-adenosine receptor agonist profile [2]: highly selective partial A1-adenosine receptor agonist
